Legend:
[1] = system: goblet cells in gastrointestinal villi; conditions: at 28 days; Faivre et al.; not head-to-head; cited from earlier work
BET BD2 = conditions: public sources, not a head-to-head trial, cited from earlier work
lupus [2] = assay: SLE (lupus) model: blood urea nitrogen (BUN) in serum; format: in vivo, MRL/MpJ-Faslpr mice; conditions: Cyclophosphamide 50 mg/kg IP once a week; Week 19
Method: (§1) Female MRL/MpJ-Faslpr mice (The Jackson Laboratory) were used to assess the efficacy of Compound A in treating lupus. Starting when animals were 10 weeks of age, protein concentration in urine was measured using urine dipsticks.
At the start of the study, each group in the study had two animals that were 9 weeks old, and all others were 10 weeks old. Dosing of all animals with the test compounds began when the older animals were 11 weeks old. Starting on Day 1, in Groups 1-4, vehicle or Compound A was administered per os (PO) […] (QD) as described above in Table 33. […] Dosing was at a consistent time each dosing day throughout the study.
(§2) Compound A may be formulated as illustrated in Experimental Method A (see Table 2E.). […] A stock solution of Compound A in DMSO (stock solution concentration of Compound A of 40 mg/mL) was prepared and aliquots for weekly preparations were frozen at −20° C. On each preparation day, a stock solution aliquot was thawed and diluted with other vehicle components to the desired concentration. Formulated Compound A and vehicle were at room temperature for dosing.
(§3) The study began when the older animals were 11 weeks old, and concluded when the older animals were 19 weeks old. Body weight was recorded once a week, with the exception of two weight measurements taken the first week of the study (when the older animals were 11 weeks old). Proteinuria was measured in the urine of animals with urine dipsticks once a week, starting when the older animals were 10 weeks old. […] Blood samples were taken retro-orbitally at the start of the study to establish a baseline (15 animals, 3 per group), and when the older animals were 16 weeks (all animals) and when animals were 19 weeks (all animals) at the conclusion of the study. Blood urea nitrogen (BUN) was measured in all animals at study termination in blood samples. After blood collection, animals were euthanized, perfused with PBS, and the left kidneys were collected and weighed and fixed in 10% buffered formalin. Left kidneys were then processed to a formalin-fixed, paraffin-embedded (FFPE) block, and histology was analyzed in Periodic Acid-Schiff-stained sections (1 section per slide), using the criteria described in Alperovich et al., Lupus, 16:18-24 (2007). Right kidneys were weighed and snap-frozen at −80° C. Spleens were also collected and weighed. SLE in animals treated with a BET inhibitor and vehicle.
BUN provides important information about how well kidneys are working. A BUN test measures the amount of urea nitrogen in the blood and indicates how much urea has been processed by the kidneys and is indicative of renal competency. Urea is a waste product that is excreted in urine.

anti-dsDNA antibodies = assay: SLE (lupus) model: anti-dsDNA antibodies in serum by ELISA; format: in vivo, MRL/MpJ-Faslpr mice; conditions: for Anti-dsDNA Antibodies in serum, mean: Cyclophosphamide 50 mg/kg IP once a week
Method: as §1
(§4) At the start of the study, each group in the study had two animals that were 9 weeks old, and all others were 10 weeks old. Dosing of all animals with the test compounds began when the older animals were 11 weeks old. […] […] Dosing was at a consistent time each dosing day throughout the study.
as §2, §3
Anti-dsDNA antibody test measures the amount of antibody to double-stranded deoxyribonucleic acid (anti-dsDNA) that may be present in the blood. Anti-dsDNA antibodies are highly specific markers of SLE as these antibodies are not thought to be present in other kinds of autoimmune disorder.

lupus [3] = assay: SLE (lupus) model: proteinuria scores; format: in vivo, MRL/MpJ-Faslpr mice; conditions: Cyclophosphamide 50 mg/kg IP once a week
Method: as §1, §4, §2, §3

[4] = SLE (lupus) model: body weight; format: in vivo, MRL/MpJ-Faslpr mice; conditions: for Mean Body Weight: Cyclophosphamide 50 mg/kg IP once a week
Method: as §1, §4, §2, §3

lupus [5] = assay: SLE (lupus) model: kidney histology lesion scores; format: in vivo, MRL/MpJ-Faslpr mice; conditions: Week 19
Method: as §1, §4, §2, §3

lupus [6] = assay: SLE (lupus) model: kidney and spleen weight; format: in vivo, MRL/MpJ-Faslpr mice; conditions: Week 19
Method: as §1, §4, §2, §3

IL-17A = IL-17A (Homo sapiens, UniProt Q16552); conditions: from FDA pharmacology review / corporate presentation; read-out: reported IC50 for IL-17A; cited from earlier work
[7] = Cyclophosphamide 50 mg/kg IP once a week

IL-17A, sequence (Q16552 24-155): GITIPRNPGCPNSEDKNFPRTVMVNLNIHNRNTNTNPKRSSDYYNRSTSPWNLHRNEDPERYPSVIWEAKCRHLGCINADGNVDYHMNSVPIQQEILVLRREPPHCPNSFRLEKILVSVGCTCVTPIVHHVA

For `CCS(=O)(=O)Nc1ccc(Oc2ccc(F)cc2F)c(-c2cn(C)c(=O)c3[nH]ccc23)c1` [ABBV-075], the “Effect on goblet cells in gastrointestinal villi” value [1] is listed as “depleted goblet cells”, the BD2 (BET BD2; comparator BET inhibitors) is listed as 13 nM and the “Selectivity (BD1/BD2)” value (BET BD2; nanoBRET assay, comparator) is listed as 2.6x.
In the case of `O=P1(N(CCCl)CCCl)NCCCO1` (stereo not drawn) [Cyclophosphamide, cyclophosphamide, reference compound], the BUN serum concentration (lupus [2]) is reported as 11.0 mg/dL, the “Anti-dsDNA Antibodies in serum, mean” value (anti-dsDNA antibodies; Week 16) is reported as 28 units/mL and the “Anti-dsDNA Antibodies in serum, mean” value (anti-dsDNA antibodies; Week 19) is reported as 23 units/mL. The “Anti-dsDNA antibodies in serum versus Vehicle group” value (anti-dsDNA antibodies; Week 16 and Week 19, Compound A (10 mg/mL) and Cyclophosphamide) was “effective in reducing levels to well below that seen with the Vehicle administered group”, the Mean proteinuria score (lupus [3]; Week 10) was 2.00 and the Mean proteinuria score (lupus [3]; Week 11) was 2.05±. The Mean proteinuria score (lupus [3]; Week 12) was 2.10, the Mean proteinuria score (lupus [3]; Week 13) was 2.35 and the Mean proteinuria score (lupus [3]; Week 14) was 2.35. The Mean proteinuria score (lupus [3]; Week 15) was 2.25, the Mean proteinuria score (lupus [3]; Week 16) was 1.85 and the Mean proteinuria score (lupus [3]; Week 17) was 2.05. The Mean proteinuria score (lupus [3]; Week 18) was 2.10, the Mean proteinuria score (lupus [3]; Week 19) was 2.25 and the “End proteinuria score ± SEM” value (lupus [3]; end of study (Week 19)) was 2.25 ± 0.13. The Mean Body Weight ([4]; Week 11) was 35.0 g, the Mean Body Weight ([4]; Week 12) was 36.2 g and the Mean Body Weight ([4]; Week 13) was 36.1 g. The Mean Body Weight ([4]; Week 14) was 37.2 g, the Mean Body Weight ([4]; Week 15) was 37.5 g and the Mean Body Weight ([4]; Week 16) was 38.6 g. It also gave a Mean Body Weight ([4]; Week 17) of 38.6 g, a Mean Body Weight ([4]; Week 18) of 38.9 g and a Mean Body Weight ([4]; Week 19) of 39.1 g. The “Relative end body weight (% of Week 11) ± SEM” value ([4]; Cyclophosphamide group) was 111.8% ± 1.7%, the “Total Glomerular Lesion (mean score)” value (lupus [5]; [7]) was 0.3 and the “Total Glomerular Lesion (table title: Mean Total Kidney Lesion Scores)” value (lupus [5]; [7]) was 0.6. The “Total Tubular and Interstitial Lesion (mean score)” value (lupus [5]; [7]) was 0.3, the “Mean total glomerular lesion score” value (lupus [5]; cyclophosphamide group) was 0.3 and the “Mean total kidney lesion score” value (lupus [5]; cyclophosphamide group) was “about 0.6”. For the same compound, the “Mean total tubular and interstitial lesion score” value (lupus [5]; cyclophosphamide group) was “about 0.3”, the “Mean Kidney Weight” value (lupus [6]; [7]) was 191 mg and the “Mean Spleen Weight” value (lupus [6]; [7]) was 116 mg. For the same compound, the “Kidney weights relative to controls” value (lupus [6]; Compound A (10 mg/kg) and cyclophosphamide groups) was “slightly decreased kidney weights” and the “Spleen weights relative to vehicle controls” value (lupus [6]; Compound A (all tested doses) and cyclophosphamide) was “decreased spleen weights”.
For DC-806 [reference compound], the IC50 (IL-17A) is listed as 5.7 nM.
